Assay results: patent publication US12559474B2, “Triazine derivatives having virus replication inhibitory activity and pharmaceutical composition comprising the same” (priority 2021, dated 2026)
Read-outs that look alike come from different tables or passages of the source.

Experiments:
[1] = tested on: SARS-CoV-2; assay: microbe, parasite or virus in culture; assay type: cell-based; details: Severe acute respiratory syndrome coronavirus 2, VeroE6/TMPRSS2, 72 h, 50% SARS-CoV-2 infected cell death inhibitory concentration, VeroE6/TMPRSS2 cells, 3 days culture
[2] = target: SARS-CoV-2 3CL protease (Severe acute respiratory syndrome coronavirus 2, UniProt P0DTD1); assay: biochemical; details: 50% SARS-CoV-2 3CL protease inhibitory concentration, read-out: IC50

Structure (SMILES)	EC50 ([1]; class symbols) [nM]	IC50 ([2]; given as class symbols) [nM]	EC50 ([1]; CellTiter-Glo 2.0) [nM]	IC50 ([2]; RapidFire MS) [nM]
Cn1cnc(Cn2c(=O)nc(Nc3cc4cn(CC5CC5)nc4cc3Cl)n(Cc3cc(Cl)c(F)cn3)c2=O)n1 [II-0269]	1000 to 10000	< 100		
Cc1cncc(-n2c(=O)nc(Nc3cc4cn(C)nc4cc3Cl)n(Cc3cc(F)c(F)c(F)c3)c2=O)c1F [II-0270]	1000 to 10000	< 100		
COCc1cncc(-n2c(=O)nc(Nc3ccc4c(c3)CCO4)n(Cc3ccc(F)c(C#N)c3)c2=O)c1 [II-0271]	1000 to 10000	< 100		
COc1ccc(Nc2nc(=O)n(-c3cncc(C4CC4)c3)c(=O)n2Cc2cc(F)c(F)c(F)c2)cc1 [II-0272]			1590	180
Cn1cc2cc(Nc3nc(=O)n(-c4cncc(C(F)(F)F)c4)c(=O)n3Cc3cc(F)c(F)c(F)c3)c(Cl)cc2n1 [II-0273]			6600	360
COC(=O)c1cncc(-n2c(=O)nc(Nc3cc4cn(C)nc4cc3Cl)n(Cc3cc(F)c(F)c(F)c3)c2=O)c1 [II-0275]			7280	360
Cc1cncc(-n2c(=O)nc(Nc3ccc4nn(CC(F)F)cc4c3)n(Cc3cc(C#N)c(F)cc3C)c2=O)c1 [II-0278]			170	3.1
Cc1cncc(-n2c(=O)nc(Nc3cc4c(cc3Cl)nc3n4CCN3)n(Cc3cc(Cl)c(F)cc3F)c2=O)c1 [II-0279]	1000 to 10000	< 100		
Cc1cncc(-n2c(=O)nc(Nc3cc4cn(CC(=O)N(C)C)nc4cc3Cl)n(Cc3cc(F)c(F)c(F)c3)c2=O)c1 [II-0281]	1000 to 10000	< 100		
Cn1cc2cc(Nc3nc(=O)n(-c4cncc(Cl)c4)c(=O)n3Cc3cc(C#N)c(F)cc3Cl)ccc2n1 [II-0282]			260	8.8
CNc1nc2cc(F)c(Nc3nc(=O)n(-c4cncc(C)c4)c(=O)n3Cc3ccc(F)c(C#N)c3)cc2s1 [II-0283]	< 1000	< 100		
Cn1cc2cc(Nc3nc(=O)n(-c4cncc(Cl)c4)c(=O)n3Cc3cc(F)c(F)c(C#N)c3)ccc2n1 [II-0284]			184	9.2
CC(C)n1cc2cc(Nc3nc(=O)n(Cc4ncn(C)n4)c(=O)n3Cc3cc(F)c(F)cc3F)c(Cl)cc2n1 [II-0285]	< 1000	< 100		
Cn1cnc(Cn2c(=O)nc(Nc3cc4cn(C)nc4cc3Cl)n(Cc3ccc(F)c(C#N)c3)c2=O)n1 [II-0286]	1000 to 10000	< 100		
Cc1nc2cc(Cl)c(Nc3nc(=O)n(Cc4ncn(C)n4)c(=O)n3Cc3cc(F)c(F)cc3F)cc2s1 [II-0287]	1000 to 10000	< 100		
Cn1cc2cc(Nc3nc(=O)n(-c4cncc(Cl)c4)c(=O)n3Cc3cc(F)c(F)cc3F)ccc2n1 [II-0288]			2400	99
Cc1cncc(-n2c(=O)nc(Nc3cc(-c4ccc[nH]c4=O)sc3C)n(Cc3cc(F)c(F)c(F)c3)c2=O)c1 [II-0289]			16000	240
Cc1cncc(-n2c(=O)nc(Nc3ccc4nn(C)cc4c3)n(Cc3cc(C#N)c(F)cc3C)c2=O)c1 [II-0290]			210	3.5
CNc1nc2cc(F)c(Nc3nc(=O)n(-c4cncc(C)c4)c(=O)n3Cc3cc(F)c(F)c(F)c3)cc2s1 [II-0291]	1000 to 10000	< 100		

Structure (SMILES)	EC50 ([1]; class symbols) [nM]	IC50 ([2]; given as class symbols) [nM]	EC50 ([1]; CellTiter-Glo 2.0) [nM]	IC50 ([2]; RapidFire MS) [nM]
CNc1nc2cc(F)c(Nc3nc(=O)n(-c4cncc(C)c4)c(=O)n3Cc3cc(C#N)ccc3Cl)cc2s1 [II-0292]			434	3.9
O=c1nc(Nc2cc3cn(CCO)nc3cc2Cl)n(Cc2cc(F)c(F)c(Cl)c2)c(=O)n1Cc1ncccn1 [II-0294]	1000 to 10000	< 100		
Cc1cncc(-n2c(=O)nc(Nc3ccc4nc(NCC(F)(F)F)sc4c3)n(Cc3cc(F)c(F)c(C#N)c3)c2=O)c1 [II-0295]	1000 to 10000	< 100		
Cn1cc2cc(Nc3nc(=O)n(Cc4ncccn4)c(=O)n3Cc3cc(F)c(F)c(Cl)c3)c(Cl)cc2n1 [II-0296]	< 1000	< 100		
CNc1nc2cc(Cl)c(Nc3nc(=O)n(Cc4ncccn4)c(=O)n3Cc3cc(F)c(F)c(Cl)c3)cc2s1 [II-0297]	1000 to 10000	< 100		
Cc1cncc(-n2c(=O)nc(Nc3ccc4nc(NCC(F)(F)F)sc4c3)n(Cc3ccc(F)c(C#N)c3)c2=O)c1 [II-0298]	1000 to 10000	< 100		
Cc1cncc(-n2c(=O)nc(Nc3ccc4nn(CC(F)(F)F)cc4c3)n(Cc3cc(C#N)ccc3C)c2=O)c1 [II-0299]			202	3.3
Cn1cnc(Cn2c(=O)nc(Nc3cc4cn(CCO)nc4cc3Cl)n(Cc3cc(Cl)c(F)cc3F)c2=O)n1 [II-0300]	1000 to 10000	< 100		
Cc1cncc(-n2c(=O)nc(Nc3cc4cn(C)nc4cc3Cl)n(Cc3cc(C#N)ccc3F)c2=O)c1 [II-0301]	< 1000	< 100		
Cn1cnc(Cn2c(=O)nc(Nc3cc4cn(CC(C)(C)O)nc4cc3Cl)n(Cc3cc(Cl)c(F)cc3F)c2=O)n1 [II-0302]	1000 to 10000	< 100		
Cc1cncc(-n2c(=O)nc(Nc3cc4sc(NC5CC5)nc4cc3Cl)n(Cc3ccc(F)c(C#N)c3)c2=O)c1 [II-0303]	< 1000	< 100		
Cc1ccc(C#N)cc1Cn1c(Nc2ccc3nn(CC(F)(F)F)cc3c2)nc(=O)n(-c2cncc(Cl)c2)c1=O [II-0304]			213	4.5
Cn1cnc(Cn2c(=O)nc(Nc3cc4cn(CC(C)(C)O)nc4cc3Cl)n(Cc3cc(F)c(F)c(Cl)c3)c2=O)n1 [II-0305]	1000 to 10000	< 100		
Cn1cnc(Cn2c(=O)nc(Nc3cc4sc(NC5CC5)nc4cc3Cl)n(Cc3cc(F)c(F)cc3F)c2=O)n1 [II-0306]			410	5.1
Cn1cnc(Cn2c(=O)nc(Nc3cc4cn(CCO)nc4cc3Cl)n(Cc3cc(F)c(F)c(Cl)c3)c2=O)n1 [II-0307]	1000 to 10000	< 100		
Cn1cc2cc(Nc3nc(=O)n(-c4cncc5ccccc45)c(=O)n3Cc3cc(F)c(F)cc3F)c(Cl)cc2n1 [II-0308]	< 1000	< 100		
Cn1cnc(Cn2c(=O)nc(Nc3cc4cn(CC(=O)OC(C)(C)C)nc4cc3Cl)n(Cc3cc(Cl)c(F)cc3F)c2=O)n1 [II-0309]	1000 to 10000	< 100		
Cn1cnc(Cn2c(=O)nc(Nc3cc4cn(CC(=O)OC(C)(C)C)nc4cc3Cl)n(Cc3cc(F)c(F)c(Cl)c3)c2=O)n1 [II-0311]	1000 to 10000	< 100		
Cc1cncc(-n2c(=O)nc(Nc3ccc4nn(CC(F)(F)F)cc4c3)n(Cc3cc(C#N)ccc3F)c2=O)c1 [II-0312]	< 1000	< 100		

Structure (SMILES)	EC50 ([1]; class symbols) [nM]	IC50 ([2]; given as class symbols) [nM]	EC50 ([1]; CellTiter-Glo 2.0) [nM]	IC50 ([2]; RapidFire MS) [nM]
CNc1nc2ccc(Nc3nc(=O)n(-c4cncc(C)c4)c(=O)n3Cc3ccc(F)c(C#N)c3)cc2s1 [II-0313]	< 1000	< 100		
CC(=O)Nc1nc2ccc(Nc3nc(=O)n(-c4cncc(C)c4)c(=O)n3Cc3ccc(F)c(C#N)c3)cc2s1 [II-0316]	1000 to 10000	< 100		
CNc1nc2cc(Cl)c(Nc3nc(=O)n(-c4cncc(C)c4)c(=O)n3Cc3cc(F)c(F)c(F)c3)cc2s1 [II-0318]	< 1000	< 100		
Cc1cncc(-n2c(=O)nc(Nc3ccc4nn(C(F)F)cc4c3)n(Cc3ccc(F)c(C#N)c3)c2=O)c1 [II-0320]	< 1000	< 100		
N#Cc1cnc2[nH]c(=O)c(Cn3c(=O)nc(Nc4ccc5c(c4)CCO5)n(Cc4cc(F)c(F)c(F)c4)c3=O)cc2c1 [II-0322]	1000 to 10000	< 100		
CNc1nc2ccc(Nc3nc(=O)n(-c4cncc(C)c4)c(=O)n3Cc3cc(F)c(F)c(F)c3)cc2s1 [II-0323]	< 1000	< 100		
Cc1nc2cc(Cl)c(Nc3nc(=O)n(Cc4ncn(C)n4)c(=O)n3Cc3cc(F)c(F)cc3F)cc2o1 [II-0326]	1000 to 10000	< 100		
CCNC(=O)Cn1c(=O)nc(Nc2cc3cn(C)nc3cc2Cl)n(Cc2cc(F)c(F)c(F)c2)c1=O [II-0329]			11500	140
Cn1cc2cc(Nc3nc(=O)n(CC(=O)NC4CCCCC4)c(=O)n3Cc3cc(F)c(F)c(F)c3)c(Cl)cc2n1 [II-0330]			42200	3600
Cc1cncc(-n2c(=O)nc(Nc3cc4cn(C)nc4cc3Cl)n(Cc3cc(Cl)ccc3C)c2=O)c1 [II-0332]			54	2
Cc1cncc(-n2c(=O)nc(Nc3cc4cn(C)nc4cc3Cl)n(Cc3cc(C#N)ccc3C(F)F)c2=O)c1 [II-0333]	< 1000	< 100		
Cc1cncc(-n2c(=O)nc(Nc3cc4cn(C)nc4cc3Cl)n(Cc3cc(C#N)ccc3CF)c2=O)c1 [II-0334]			620	2.8
CCn1cc2cc(Nc3nc(=O)n(-c4cncc(C)c4)c(=O)n3Cc3cc(C#N)c(F)cc3C)ccc2n1 [II-0335]			241	3.2
CCNc1nc2cc(Cl)c(Nc3nc(=O)n(-c4cncc(C)c4)c(=O)n3Cc3ccc(F)c(C#N)c3)cc2s1 [II-0336]	< 1000	< 100		
Cc1cncc(-n2c(=O)nc(Nc3cc4cn(CCO)nc4cc3Cl)n(Cc3cc(F)c(F)cc3F)c2=O)c1 [II-0337]	< 1000	< 100		
CCNc1nc2cc(Cl)c(Nc3nc(=O)n(Cc4ncn(C)n4)c(=O)n3Cc3cc(F)c(F)cc3F)cc2s1 [II-0339]	< 1000	< 100		
Cc1nc2cc(Cn3c(=O)nc(Nc4ccc5c(c4)CCO5)n(Cc4cc(F)c(F)c(F)c4)c3=O)c(=O)[nH]c2s1 [II-0341]	1000 to 10000	< 100		
COc1ccc(Nc2nc(=O)n(Cc3cc4sccc4[nH]c3=O)c(=O)n2Cc2cc(F)c(F)c(F)c2)cc1 [II-0342]	1000 to 10000	< 100		
COc1ccc(Nc2nc(=O)n(Cc3cc4c([nH]c3=O)CCC4)c(=O)n2Cc2cc(F)c(F)c(F)c2)cc1 [II-0343]			4140	310
